# Assay results: patent publication US8354422B2, “Pyrimidine inhibitors of kinase activity” (Abbott Laboratories Inc., priority 2009, dated 2013)
# Target: T1, C-terminal GST-tagged, recombinant, human IGF-1R, amino acids 954-1367 (Homo sapiens, UniProt P08069)
# T1 construct: human IGF-1R, amino acids 954-1367 expressed by baculovirus in Sf21 cells; GST (C); purchased Cell Signaling Technology; host or cells: baculovirus in Sf21 cells
# Assay: IGF-1R kinase activity, homogenous time-resolved fluorescence (HTRF) in vitro kinase assay
# Type: biochemical
# Settings: IGF-1R kinase HTRF assay, ATP 50 μM, biotinylated peptide substrate 0.5 μM, 60 minutes at room temperature
# Procedure: IGF-1R kinase activity was assayed by a homogenous time-resolved fluorescence (HTRF) in vitro kinase assay (Mathis, G., HTRF(R) Technology. J Biomol Screen, 1999. 4(6): p. 309-314). Specifically, 10 μL C-terminal GST-tagged, recombinant, human IGF-1R, amino acids 954-1367 expressed by baculovirus in Sf21 cells (Cell Singaling Technology) was mixed with 10 μL inhibitor (various concentrations, 2% final DMSO) and 10 μL of ATP (50 μM final concentration) in reaction buffer (50 mM HEPES, pH […], 2 mM MnCl2, 0.1% BSA and 1 mM DTT, 40 μL final volume). The reaction was initiated by addition of 10 μL of biotinylated peptide substrate (Biotin-Ahx-[…], 0.5 μM final concentration) in a black 384-well plate (Packard). After 60 minutes incubation at room temperature, the reaction was quenched by addition of 60 μL stop/revelation buffer to give 30 mM EDTA, 1 μg/mL streptavidin-APC (Prozyme), 50 ng/mL anti-phosphotyrosine mAb PT66-K Europium Cryptate, 30 mM HEPES, pH 7.5, 120 mM KF, 0.005% Tween-20, 0.05% BSA). The quenched reaction was allowed to stand at room temperature for 1 hour and then read in a time-resolved fluorescence detector (Envision, Perkin Elmer) at 615 nm and 665 nm simultaneously. The ratio between the signal of 615 nm and 665 nm was used in the calculation of the IC50.
# T1 sequence (P08069 954-1367): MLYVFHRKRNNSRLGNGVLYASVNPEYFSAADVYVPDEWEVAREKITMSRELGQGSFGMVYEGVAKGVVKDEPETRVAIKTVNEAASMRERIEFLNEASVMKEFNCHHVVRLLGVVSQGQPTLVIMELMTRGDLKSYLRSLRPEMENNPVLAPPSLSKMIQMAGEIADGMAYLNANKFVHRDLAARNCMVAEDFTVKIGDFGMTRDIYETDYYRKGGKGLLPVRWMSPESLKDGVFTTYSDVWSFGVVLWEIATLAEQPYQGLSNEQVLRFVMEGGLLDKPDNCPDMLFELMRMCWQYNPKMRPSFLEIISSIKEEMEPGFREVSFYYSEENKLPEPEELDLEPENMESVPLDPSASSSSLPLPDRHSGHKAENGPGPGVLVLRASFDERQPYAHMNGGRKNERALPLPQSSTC
row,IC50 [nM],SMILES
1,25 to 100,"COc1cc(-c2nc3sccn3c2-c2ccnc(Nc3cccc(CCN(C)C)c3)n2)ccc1OCc1ccccc1 [Example 85, 4-{6-[4-(benzyloxy)-3-methoxyphenyl]imidazo[2,1-b][1,3]thiazol-5-yl}-N-{3-[2-(dimethylamino)ethyl]phenyl}pyrimidin-2-amine]"
2,25 to 100,"COc1cc(N(C)C)ccc1Nc1nccc(-c2c(-c3ccc(OCc4ccccc4)c(OC)c3)nc3sccn23)n1 [Example 81, N^1-(4-{6-[4-(benzyloxy)-3-methoxyphenyl]imidazo[2,1-b][1,3]thiazol-5-yl}pyrimidin-2-yl)-2-methoxy-N^4,N^4-dimethylbenzene-1,4-diamine]"
3,101 to 500,"CN(C)CCc1cccc(Nc2nccc(-c3c(-c4ccc(OCc5ccccc5)c(Cl)c4)nc4ccccn34)n2)c1 [Example 11, 4-{2-[4-(benzyloxy)-3-chlorophenyl]imidazo[1,2-a]pyridin-3-yl}-N-{3-[2-(dimethylamino)ethyl]phenyl}pyrimidin-2-amine]"
4,25 to 100,"COc1cc(-c2nc3ccccn3c2-c2ccnc(Nc3cccc(CN4CCC(O)C4)c3)n2)ccc1OCc1ccccc1 (stereo not drawn) [Example 70, 1-{3-[(4-{2-[4-(benzyloxy)-3-methoxyphenyl]imidazo[1,2-a]pyridin-3-yl}pyrimidin-2-yl)amino]benzyl}pyrrolidin-3-ol]"
5,< 25,"CN(C)CCc1cccc(Nc2nccc(-c3c(-c4ccc(OCc5ccccc5)cc4)nc4ccccn34)n2)c1 [Example 1, 4-{2-[4-(benzyloxy)phenyl]imidazo[1,2-a]pyridin-3-yl}-N-{3-[2-(dimethylamino)ethyl]phenyl}pyrimidin-2-amine]"
6,101 to 500,"CN(C)CC(=O)Nc1cccc(Nc2nccc(-c3c(-c4ccc(OCc5ccccc5)cc4)nc4ccccn34)n2)c1 [Example 67, N^1-{3-[(4-{2-[4-(benzyloxy)phenyl]imidazo[1,2-a]pyridin-3-yl}pyrimidin-2-yl)amino]phenyl}-N^2,N^2-dimethylglycinamide]"
7,25 to 100,"COc1cc(-c2nc3ccccn3c2-c2ccnc(Nc3cnn(CCN4CCOCC4)c3)n2)ccc1OCc1ccccc1 [Example 55, 4-{2-[4-(benzyloxy)-3-methoxyphenyl]imidazo[1,2-a]pyridin-3-yl}-N-[1-(2-morpholin-4-ylethyl)-1H-pyrazol-4-yl]pyrimidin-2-amine]"
8,> 1000,"CN(C)CCc1cccc(Nc2nccc(-c3c(-c4ccc(OCc5ccccc5)c(C(F)(F)F)c4)nc4ccccn34)n2)c1 [Example 49, 4-{2-[4-(benzyloxy)-3-(trifluoromethyl)phenyl]imidazo[1,2-a]pyridin-3-yl}-N-{3-[2-(dimethylamino)ethyl]phenyl}pyrimidin-2-amine]"
9,101 to 500,"COc1cc(N2CCOCC2)ccc1Nc1nccc(-c2c(-c3ccc(OCc4ccccc4)cc3)nc3ccccn23)n1 [Example 2, 4-{2-[4-(benzyloxy)phenyl]imidazo[1,2-a]pyridin-3-yl}-N-(2-methoxy-4-morpholin-4-ylphenyl)pyrimidin-2-amine]"
10,101 to 500,"CN(C)CCc1cccc(Nc2nccc(-c3c(-c4ccc(OCc5ccc(F)cc5)cc4)nc4ccccn34)n2)c1 [Example 20, N-{3-[2-(dimethylamino)ethyl]phenyl}-4-(2-{4-[(4-fluorobenzyl)oxy]phenyl}imidazo[1,2-a]pyridin-3-yl)pyrimidin-2-amine]"
11,101 to 500,"COc1cc(N(C)CCO)ccc1Nc1nccc(-c2c(-c3ccc(OCc4ccccc4)c(OC)c3)nc3ccccn23)n1 [Example 48, 2-[{4-[(4-{2-[4-(benzyloxy)-3-methoxyphenyl]imidazo[1,2-a]pyridin-3-yl}pyrimidin-2-yl)amino]-3-methoxyphenyl}(methyl)amino]ethanol]"
12,25 to 100,"COc1cc(-c2nc3ccccn3c2-c2ccnc(Nc3cccc(NC(=O)CN(C)C)c3)n2)ccc1OCc1ccccc1 [Example 66, N^1-{3-[(4-{2-[4-(benzyloxy)-3-methoxyphenyl]imidazo[1,2-a]pyridin-3-yl}pyrimidin-2-yl)amino]phenyl}-N^2,N^2-dimethylglycinamide]"
13,> 1000,"c1ccc(COc2ccc(-c3nc4ccccn4c3-c3ccnc(Nc4ccccc4)n3)cc2)cc1 [Example 7, 4-{2-[4-(benzyloxy)phenyl]imidazo[1,2-a]pyridin-3-yl}-N-phenylpyrimidin-2-amine]"
14,25 to 100,"COc1cc(-c2nc3ccccn3c2-c2ccnc(Nc3cccc(CCN(C)CCO)c3)n2)ccc1OCc1ccccc1 [Example 38, 2-[(2-{3-[(4-{2-[4-(benzyloxy)-3-methoxyphenyl]imidazo[1,2-a]pyridin-3-yl}pyrimidin-2-yl)amino]phenyl}ethyl)(methyl)amino]ethanol]"
15,25 to 100,"COc1cc(N2CCC(N(C)C)CC2)ccc1Nc1nccc(-c2c(-c3ccc(OCc4ccccc4)c(OC)c3)nc3ccccn23)n1 [Example 33, 4-{2-[4-(benzyloxy)-3-methoxyphenyl]imidazo[1,2-a]pyridin-3-yl}-N-{4-[4-(dimethylamino)piperidin-1-yl]-2-methoxyphenyl}pyrimidin-2-amine]"
16,101 to 500,"COc1ccc(S(C)(=O)=O)cc1Nc1nccc(-c2c(-c3ccc(OCc4ccccc4)cc3)nc3ccccn23)n1 [Example 35, 4-{2-[4-(benzyloxy)phenyl]imidazo[1,2-a]pyridin-3-yl}-N-[2-methoxy-5-(methylsulfonyl)phenyl]pyrimidin-2-amine]"
17,101 to 500,"COc1cc(N2CCC(N3CCSCC3)CC2)ccc1Nc1nccc(-c2c(-c3ccc(OCc4ccccc4)c(OC)c3)nc3ccccn23)n1 [Example 56, 4-{2-[4-(benzyloxy)-3-methoxyphenyl]imidazo[1,2-a]pyridin-3-yl}-N-[2-methoxy-4-(4-thiomorpholin-4-ylpiperidin-1-yl)phenyl]pyrimidin-2-amine]"
18,< 25,"COc1ccc(N2CCS(=O)(=O)CC2)cc1Nc1nccc(-c2c(-c3ccc(OCc4ccccc4)c(OC)c3)nc3ccccn23)n1 [Example 74, 4-{2-[4-(benzyloxy)-3-methoxyphenyl]imidazo[1,2-a]pyridin-3-yl}-N-[5-(1,1-dioxidothiomorpholin-4-yl)-2-methoxyphenyl]pyrimidin-2-amine]"
19,> 1000,"Fc1ccc(Nc2nccc(-c3c(-c4ccc(OCc5ccccc5)cc4)nc4ccccn34)n2)cc1 [Example 28, 4-{2-[4-(benzyloxy)phenyl]imidazo[1,2-a]pyridin-3-yl}-N-(4-fluorophenyl)pyrimidin-2-amine]"
20,101 to 500,"CN(C)CCc1cccc(Nc2nccc(-c3c(-c4ccc(OCc5ccccc5F)cc4)nc4ccccn34)n2)c1 [Example 18, N-{3-[2-(dimethylamino)ethyl]phenyl}-4-(2-{4-[(2-fluorobenzyl)oxy]phenyl}imidazo[1,2-a]pyridin-3-yl)pyrimidin-2-amine]"
21,> 1000,"COc1ccccc1Nc1nccc(-c2c(-c3ccc(OCc4ccccc4)cc3)nc3sccn23)n1 [Example 79, 4-{6-[4-(benzyloxy)phenyl]imidazo[2,1-b][1,3]thiazol-5-yl}-N-(2-methoxyphenyl)pyrimidin-2-amine]"
22,< 25,"COc1ccc(NC(=O)CN(C)C)cc1Nc1nccc(-c2c(-c3ccc(OCc4ccccc4)cc3)nc3ccccn23)n1 [Example 72, N^1-{3-[(4-{2-[4-(benzyloxy)phenyl]imidazo[1,2-a]pyridin-3-yl}pyrimidin-2-yl)amino]-4-methoxyphenyl}-N^2,N^2-dimethylglycinamide]"
23,> 1000,"CS(=O)(=O)c1ccc(Nc2nccc(-c3c(-c4ccc(OCc5ccccc5)cc4)nc4ccccn34)n2)cc1 [Example 6, 4-{2-[4-(benzyloxy)phenyl]imidazo[1,2-a]pyridin-3-yl}-N-[4-(methylsulfonyl)phenyl]pyrimidin-2-amine]"
24,> 1000,"CS(=O)(=O)c1cccc(Nc2nccc(-c3c(-c4ccc(OCc5ccccc5)cc4)nc4ccccn34)n2)c1 [Example 4, 4-{2-[4-(benzyloxy)phenyl]imidazo[1,2-a]pyridin-3-yl}-N-[3-(methylsulfonyl)phenyl]pyrimidin-2-amine]"
25,25 to 100,"COc1cc(-c2nc3ccccn3c2-c2ccnc(Nc3cnn(CCO)c3)n2)ccc1OCc1ccccc1 [Example 47, 2-{4-[(4-{2-[4-(benzyloxy)-3-methoxyphenyl]imidazo[1,2-a]pyridin-3-yl}pyrimidin-2-yl)amino]-1H-pyrazol-1-yl}ethanol]"
26,25 to 100,"COc1ccc(S(C)(=O)=O)cc1Nc1nccc(-c2c(-c3ccc(OCc4ccccc4)c(OC)c3)nc3ccccn23)n1 [Example 34, 4-{2-[4-(benzyloxy)-3-methoxyphenyl]imidazo[1,2-a]pyridin-3-yl}-N-[2-methoxy-5-(methylsulfonyl)phenyl]pyrimidin-2-amine]"
27,> 1000,"Cc1cc(Nc2nccc(-c3c(-c4ccc(OCc5ccccc5)cc4)nc4ccccn34)n2)n[nH]1 [Example 14, 4-{2-[4-(benzyloxy)phenyl]imidazo[1,2-a]pyridin-3-yl}-N-(5-methyl-1H-pyrazol-3-yl)pyrimidin-2-amine]"
